Laboratory results reported in US8236772B2, “Methods of modulating angiogenesis and screening compounds for activity in modulating angiogenesis” (The Board of Trustees of the Leland Stanford Junior …, priority 2005, dated 2012).
“Also recorded” adds a separate entry of the source. Like-named read-outs stand apart in the source and are kept apart here.

Key:
[1] = tested on: human microvascular endothelial cell (HMVEC) migration; test: Cell migration assay (wounding) on HMVEC; type: cell-based; details: for effect of siRNA on growth factor induced endothelial cell migration: 96 hours after transfection, FIG. 7; for HMVEC migration after siRNA transfection: in the absence of added growth factors, vs vehicle control, FIG. 6B
[2] = tested on: thioredoxin activity in human microvascular endothelial cells; test: Thioredoxin bioassay (colorimetric, DTNB) on HMVEC protein extracts; type: cell-based; details: for thioredoxin activity after siRNA transfection: in the absence of the stimuli, vs vehicle control, FIG. 6A
Procedure: Thioredoxin Bioassay. Thioredoxin was assayed based upon previously published colorimetric protocols. Wang et al. (2002) J. Biol Chem. 277:26496-26500. The level of thioredoxin activity is assessed at […] via the […] of a colorimetric substrate DTNB (5,5′-dithiobis(2-nitrobenzoic acid)). Protein extracts were obtained by subjecting cells to a lysis buffer (20 mM HEPES (pH 7.9), 300 mM NaCl, 100 mM KCl, 10 mM EDTA, 0.1% Nonidet P-40, PMSF protease inhibitors).
Double-stranded siRNA were transfected into cells (Lipofectamine2000 reagent, Invitrogen). 24 hours after transfection, HMVEC migration experiments were performed, in the presence of vehicle or stimuli. Cell migration and thioredoxin activity were assayed as described above.

[3] = tested on: HMVECs; test: cDNA microarray analysis of HMVECs; type: cell-based, human
Procedure: Microarray Analyses. HMVECs were grown to 50-70% confluency. Subconfluent rather than confluent HMVEC cultures were studied because they more closely resemble conditions associated with cell migration in vivo, and because this condition is associated with increased EC expression of α7-nAChRs. Heeschen et al. (2002) J. Clin. Invest. 110:527-536. The concentration of the FBS in the media was then reduced to 1% so as to render the endothelial cells quiescent. After 24 hours, nicotine (10^−8M), VEGF (10 ng/ml) or bFGF (10 ng/ml) was added. Total RNA was then harvested at 24 hours. Five separate experiments per condition were processed for cDNA microarray analysis. Fluorescently labeled cDNAs (stimulated HMVECs versus vehicle-treated HMVECs at 24 hours post incubation) were hybridized on cDNA microarrays containing 39711 nonredundant cDNA clones, representing 26,260 unique UniGene clusters (SFGF, Stanford, Calif.). Eisen et al. (1998) Proc Natl Acad Sci USA 95:14863-14868. Scanning of processed microarray slides was performed using a GenePix400A scanner and images analysed with GENEPIX PRO software (Axon Instruments, Foster City, Calif.). Microarray data were stored in the Stanford Microarray Database (Stanford, Calif.). Spots with signal less than 2.5-fold above background were removed in both channels and/or a regression correlation of less than 0.6. Genes with less than 80% evaluable data were excluded and the remaining data was then normalized. The significance of microarrays (SAM) algorithm was used with a one-class design to identify genes differentially expressed by treatment with each stimuli at each timepoint. Tusher et al. (2001) Proc Natl Acad Sci USA. 98:5116-5121. Delta values giving approximately 5% false discovery were chosen. To analyze convergent gene expression profiles, all differentially expressed genes at 24 hours were hierarchically clustered by gene and by array (Cluster software, version 2.11), and the results analysed with Treeview software (version 1.6). Eisen et al. (1998) supra.

[4] = tested on: human microvascular endothelial cell (HMVECs)
Text: To further investigate the effects of nAChR-dependent pathways on EC migration, the effect of the nAChR antagonist, hexamethonium, on EC migration induced by nicotine, VEGF and bFGF was studied.

[5] = vs vehicle, nicotine 10^−8M to 10^−4M, VEGF or bFGF 1-10 ng/ml, FIG. 1, 2A, 5B
[6] = HMVEC, 24 h, effect stronger for bFGF than for nicotine or VEGF, FIG. 3B Panel D
[7] = HMVEC, vs vehicle, nicotine 10^−8M, VEGF 10 ng/ml, bFGF 10 ng/ml, hexamethonium 10^−4M, FIG. 4, 5A

Q: “scrambled siRNA: Scrambled (randomly arranged) RNAi GUUGGCCAUUCUACUUCGCTTdtt (SEQ ID NO:17) used as negative control (GUUGGCCAUUCUACUUCGCTTDTT; dTdT overhang, further chemistry not given here)” was tested. Which “effect of siRNA on growth factor induced endothelial cell migration” value (from here on “effect of siRNA”) ([1]; HMVEC) did it give?
A: The value was “no effect”.

Q: And the “HMVEC migration after siRNA transfection” value [1]?
A: The value was “no effect”.

Q: What about the “thioredoxin activity after siRNA transfection” value ([2]; HMVEC) of the same compound?
A: Its value is “no effect”.

Q: Which results are given for VEGF?
A: EC (HMVEC) migration, stimulus alone [1]: induced EC migration; concentration of maximal effects on EC migration [1]: 10 ng/mL; Fold Change CHRM5 (Cholinergic muscarinic receptor 5) [3]: 2.0; Fold Change CHRNA3 (Nicotinic receptor alpha polypeptide 3) [3]: 1.7; Fold Change CHRNA10 (Nicotinic receptor alpha polypeptide 10) [3]: 2.0; Fold Change CHRNB2 (Nicotinic receptor beta polypeptide 2) [3]: 6.9; Fold Change CHRNB3 (Nicotinic receptor beta polypeptide 3) [3]: 2.2; expression of the VEGF receptor FLT1 [3]: induced activation; thioredoxin activity, agent alone [2]: induced HMVEC thioredoxin activity significantly above vehicle; also recorded: increased

Q: “bFGF: human bFGF purchased from R&D Systems; angiogenic growth factor” was tested. Which “concentration of maximal effects on EC migration” value ([1]; HMVEC, range 1-10 ng/ml) did it give?
A: The value was 10 ng/mL.

Q: And the “EC (HMVEC) migration, stimulus alone” value [1, 5]?
A: Its value is “induced EC migration”.

Q: What about the “expression of the VEGF receptor FLT1” value [3, 6] of the same compound?
A: Its value is “induced activation”.

Q: What about the “thioredoxin activity, agent alone” value [2, 7] of the same compound?
A: The value was “less robust (P=0.02 vs. vehicle) but significant increase; also recorded: increased”.

Q: With “siRNA directed against P4HA: Double-stranded siRNA to P4HA1: sense GGAUUUGUUGGGCAUCCAGtt (SEQ ID NO: 11), antisense CUGGAUGCCCAACAAAUCCtt (SEQ ID NO: 12) (sense GGAUUUGUUGGGCAUCCAGTT; antisense CUGGAUGCCCAACAAAUCCTT; lower-case overhang letters stated to be dideoxynucleotides, upper case undefined, further chemistry not given here)” as the compound, how does the “effect of siRNA” value ([1]; HMVEC) read?
A: The value was “inhibited”.

Q: CN1CCC[C@H]1c1cccnc1 [nicotine, S-3-(1-methyl-2-pyrrolidinyl)pyridine, reference compound] was tested. Which “concentration of maximal stimulation of EC migration” value ([1]; HMVEC, dose range 10^−8M to 10^−4M, FIG. 2A) did it give?
A: The value was 10^−8 M.

Q: And the “EC (HMVEC) migration, stimulus alone” value [1, 5]?
A: Its value is “greater migratory activity; also recorded: induced human microvascular endothelial cell (HMVEC) migration in a dose-dependent fashion”.

Q: What about the “EC (HMVEC) migration, stimulus alone” value ([1]; vs vehicle, nicotine 10^−8M to 10^−4M, VEGF or bFGF 1-10 ng/ml, FIG. 1, 2A, 5B, listed as Nicotine) of the same compound?
A: The value was “stimulated EC migration in a dose-dependent manner”.

Q: What about the “expression of the VEGF receptor FLT1” value [3, 6] of the same compound?
A: Its value is “induced activation”.

Q: What about the “thioredoxin activity, agent alone” value [2, 7] of the same compound?
A: The value was “induced HMVEC thioredoxin activity significantly above vehicle; also recorded: increased”.

Q: What about the “thioredoxin activity, agent alone” value ([2]; HMVEC, vs vehicle, nicotine 10^−8M, VEGF 10 ng/ml, bFGF 10 ng/ml, hexamethonium 10^−4M, FIG. 4, 5A, listed as Nicotine) of the same compound?
A: Its value is “increased”.

Q: “siRNA directed against ARHGEF: Double-stranded siRNA to ARHGEF7: sense GCCUGUGUCUCCCAAAUCAtt (SEQ ID NO: 5), antisense UGAUUUGGGAGACACAGGCtt (SEQ ID NO: 6) (sense GCCUGUGUCUCCCAAAUCATT; antisense UGAUUUGGGAGACACAGGCTT; lower-case overhang letters stated to be dideoxynucleotides, upper case undefined, further chemistry not given here)” was tested. Which “effect of siRNA” value ([1]; HMVEC) did it give?
A: Its value is “inhibited”.

Q: α-bungarotoxin was tested. Which “effect on nicotine-induced EC migration” value [1] did it give?
A: The value was “abolished”.

Q: Which “cell death (cellular toxicity)” value [4] does the source give for CNC1(C)C2CCC(C2)C1(C)C (stereo not shown) [mecamylamine] here?
A: Its value is “did not induce cell death”.

Q: Which “effect on growth factor (VEGF or bFGF)-induced EC migration” value [1] does the source give for C[N+](C)(C)CCCCCC[N+](C)(C)C [hexamethonium, hexamethonium bromide] here?
A: The value was “significantly attenuated”.

Q: What about the “effect on nicotine-induced EC migration” value [1] of the same compound?
A: The value was “abrogated; also recorded: abolished”.

Q: What about the “effect on nicotine-, VEGF- or bFGF-induced thioredoxin activity” value [2] of the same compound?
A: Its value is “inhibited”.

Q: What about the “thioredoxin activity, agent alone” value [2] of the same compound?
A: Its value is “no significant effect”.

Q: And the “cell death (cellular toxicity)” value ([4]; antagonist alone, MTT assay)?
A: The value was “did not induce cell death”.

Q: What does the source list for “siRNA against TXNIP: Double-stranded siRNA to TXNIP: sense ACAGACUUCGGAGUACCUGtt (SEQ ID NO: 14), antisense CAGGUACUCCGAAGUCUGUtt (SEQ ID NO: 15) (sense ACAGACUUCGGAGUACCUGTT; antisense CAGGUACUCCGAAGUCUGUTT; lower-case overhang letters stated to be dideoxynucleotides, upper case undefined, further chemistry not given here)”?
A: HMVEC migration after siRNA transfection [1]: strongly stimulated; also recorded: significantly increased; thioredoxin activity after siRNA transfection ([2]; HMVEC): significantly stimulated; also recorded: significantly increased

Q: For “siRNA directed against Rin2: Double-stranded siRNA to Rin2: sense CUGAAACAGGAGAUGGUGCtt (SEQ ID NO: 8), antisense GCACCAUCUCCUGUUUCAGtt (SEQ ID NO: 9) (sense CUGAAACAGGAGAUGGUGCTT; antisense GCACCAUCUCCUGUUUCAGTT; lower-case overhang letters stated to be dideoxynucleotides, upper case undefined, further chemistry not given here)”, which “effect of siRNA” value ([1]; HMVEC) is on record?
A: The value was “inhibited”.
